# Reference: patent publication US11850266B2, “Cardiomyocytes and compositions and methods for producing the same” (President and Fellows of Harvard College, priority 2019, dated 2023)
# Legend:
# Assay type in all cases: cell-based, human
# [1] = tested on: iPSC-derived cardiomyocytes; experiment: Spontaneous beating rate of cardiomyocytes; conditions: FIG. 29
# Experimental: (§1) The BJRiPS cell line was used to generate preliminary data. BJRiPS cells were differentiated into cardiomyocytes according to previously published protocols (6). After the onset of beating (around day 10), cardiomyocytes were treated with vehicle (DMSO) or different concentrations of rapamycin, Torin1, or Torin2 for different time periods. Beating rate was counted manually. Some cells were harvested after 5-7 days of treatment for flow cytometry analysis. Other cells were harvested after 7 days of treatment for qPCR.
# [2] = tested on: BJRiPS-derived cardiomyocytes; experiment: Example 3 preliminary qPCR of maturation genes in BJRiPS-derived cardiomyocytes; conditions: preliminary data, after differentiation
# Experimental: as §1
# [3] = tested on: iPSC-derived cardiomyocytes; experiment: Calcium transients (Fluo-4 AM) analysis with Vala Kinetic Image Cytometer; conditions: isoproterenol 1 μM, FIG. 14
# Experimental: To perform calcium transients analysis, 50 ul of 10 ug/ml Hoeschst 33258 and 5 μM Fluo-4 AM was added to each well of a 96 well plate and incubated for 10 minutes at 37 degrees. Media was replaced with RPMI without phenol red supplemented with 1:100 Oxyfluor and 10 uM sodium lactate. Isoproterenol (1 μM) was added to the media for isoproterenol experiments. Pacing protocol was 5 seconds delay without pacing followed by 5 seconds pacing at 1 Hz and 5 seconds imaging without pacing. Imaging was performed using the Vala Kinetic Image Cytometer at 30 fps with 33.30 ms exposure at 14.25 intensity. Stimulation pulse was 5 ms with 15V voltage. Data was collected by CyteSeer analysis program.
# [4] = tested on: TNNT2+ iPSC-derived cardiomyocytes; experiment: Cell cycle analysis by flow cytometry (Hoechst 33342 / pyronin Y) of TNNT2+ cardiomyocytes
# Experimental: (§2) To prepare for differentiation, iPSCs were plated at a density between 20,000 to 80,000 cells (depending on the cell line) per well of a 12-well plate at four days prior to onset of differentiation. Cells were differentiated according to the protocol previously described by Lian et al. with some modifications (FIG. 1A) (1). Basal media was changed from StemFlex to RPMI/B27 on day 0 of differentiation. The GSK3 inhibitor, CHIR99021 (6 μM), was added for 48 hours from day 0 to day 2 of differentiation when cells were approximately 70-80% confluent. The Wnt antagonist IWP4 (5 μM) was added from days 2 to 4 of differentiation. Insulin (10 μg/ml) was added to the media starting on day 7 of differentiation, and media was changed every 2-3 days. In general, higher purity (TNNT2+) cardiomyocytes were observed when beating initiated prior to day 10 of differentiation, therefore only batches with onset of beating between days 7-10 of differentiation were included in this study. Beating cardiomyocytes were treated with Torin1 (200 nM, unless otherwise noted) or vehicle (0.02% dimethylsulfoxide (DMSO)) beginning at ˜2 days after onset of beating for 7 days (media changed with fresh Torin1 or DMSO every 2-3 days), unless otherwise noted. After Torin1 treatment, media was switched back to RPMI/B27/insulin and maintained with media change every 2-3 days until endpoint assay. In a few assays, fatty acids were added in the form of chemically defined lipids (Gibco) diluted 1:1000 simultaneous with Torin1 treatment. In some other assays, fetal bovine serum (10% FBS) was added to cells after completion of Torin treatment for 2-4 days.
# Cells were dissociated and 5×10^5 to 1×10^6 cells were used per condition. For cell cycle analysis, 5×10^5 cells per condition were fixed in 70% cold ethanol for at least 2 hours to overnight at −20 degrees C. Cells were stained first with AlexaFluor 647-TNNT2 in Permeabilization Buffer (Thermo) then with Hoechst 33342 (2 μg/ml) and pyronin Y (4 μg/ml) for 20 minutes to distinguish between cells in G0, G1, and S-G2-M phases. For other stains, cells were fixed in eBioscience Intracellular Fixation buffer for 30 minutes followed washing twice in eBioscience Permeabilization Buffer and stained with the appropriate primary antibody (Table 2) in eBioscience FACS Staining buffer for 30-60 minutes. If a secondary antibody was used, cells were incubated with the appropriate secondary antibody (Table 2) for 30-60 minutes. The geometric mean fluorescence intensity (MFI) was quantified for TNNT2 and Kir2.1 antibodies. Data were acquired via a BD LSRII instrument and analyzed using FlowJo software.
# [5] = tested on: iPSC-derived cardiomyocytes; experiment: Western analysis of protein expression in iPSC-derived cardiomyocytes
# Experimental: as §2
# Cells were lysed with lysis buffer (1% Triton X, 0.35% Na-deoxycholate, 1 mM EDTA, 1% protease inhibitor cocktail (Sigma), 1% phosphatase inhibitor cocktail 2 (Sigma), 1% phosphatase inhibitor cocktail 3 (Sigma), 1 mM phenylmethylsulfonyl fluoride (PMSF)) and total protein was measured with the Pierce BCA Protein Assay Kit. Samples with equal total protein quantities (prepared in Laemmli Sample Buffer (Bio-Rad)) were loaded into a Mini-Protean TGX Precast Gel (Bio-Rad) and electrophoresed for 1 hour at 100 V before transfer to a PVDF membrane using the Trans-Blot Turbo Transfer System (Bio-Rad). The Precision Plus Protein Dual Color Standards molecular weight ladder was used to estimate molecular weight of detected bands (Bio-Rad). Membranes were blocked with 5% milk or bovine serum albumin then incubated with the primary antibody (Table 2) overnight at 4 degrees C. followed by incubation with the horseradish peroxidase-conjugated secondary antibody (Table 2) for 1 hour at room temperature. The Amersham ECL Western Blotting Detection kit was used to detect the protein signal by chemiluminescence, and band densities were quantified using ImageJ software (NIH).
# [6] = pifithrin-α 10 μM with Torin1 200 nM, 7 days, FIG. 5B
compound,measurement,setting,value
Nc1ccc(-c2ccc3ncc4ccc(=O)n(-c5cccc(C(F)(F)F)c5)c4c3c2)cn1 [Torin2],beating rate of cardiomyocytes,"[1]; Torin1 10, 50, 200 nM, Torin2 200 nM, from day 11 for 4-5 days",decreased the beating rate
same,beating rates at 1 week,"[1]; dose-dependent, BJRiPS-CMs",significantly decreased beating rates
same,RNA expression of markers of maturation including TNNI3 and KCNJ2,[2],increased RNA expression
CC(C)NCC(O)c1ccc(O)c(O)c1 (stereo not shown) [isoproterenol],"calcium peak rise time, peak decay time and FWHM time with isoproterenol stimulation",[3],further decreases
COc1ccc(C2=N[C@@H](c3ccc(Cl)cc3)[C@@H](c3ccc(Cl)cc3)N2C(=O)N2CCNC(=O)C2)c(OC(C)C)c1 [nutlin-3a],percentage of quiescent (G0) TNNT2+ cardiomyocytes versus control,"[4]; nutlin-3a 10 μM 24 hours, Torin1 200 nM 7 days, or both, BJRiPS-CMs, FIG. 6B",increased the percentage of quiescent (G0) TNNT2+ cardiomyocytes
same,percentage of TNNT2+ cardiomyocytes in G1 phase versus control,"[4]; nutlin-3a 10 μM 24 hours, Torin1 200 nM 7 days, or both, FIG. 6B",decreased the percentage of TNNT2+ cardiomyocytes in G1 phase
same,p53 and TNNI3 protein expression,"[5]; nutlin-3a 10 μM 24 hours, independently of Torin1, FIG. 6C",increased p53 and TNNI3 protein expression
Cc1ccc(C(=O)Cn2c3c(sc2=N)CCCC3)cc1 [pifithrin-α],"percentage of cardiomyocytes in the cell cycle (G1, S/G2/M) versus Torin1 alone",[4]; [6],increased the percentage of cardiomyocytes in the cell cycle
same,percentage of quiescent (G0) cardiomyocytes versus Torin1 alone,[4]; [6],decreased the percentage of quiescent (G0) cardiomyocytes
same,Torin1-induced increase in p53 and TNNI3 protein,"[5]; pifithrin-α 10 μM with Torin1 200 nM, 7 days, FIGS. 5C-5D",inhibited the Torin1-induced increase in both p53 and TNNI3
